Reference: patent US20230027066A1 (Urovant Sciences GmbH, priority 2019, published 2023)

Experiments:
[1] = 40-week extension study (52 weeks), adverse events
Description: Approximately 500 men and women with overactive bladder who completed 12 weeks in the parent study were permitted to enroll, at approximately 110 study sites in the U.S.
Secondary endpoints were evaluation of CFB at Week 52 in average number of micturitions, Urge Urinary Incontinence (UUI) episodes, urgency episodes, and total urinary incontinence episodes. All CFB calculations used the parent study Baseline value.

[2] = Phase 2b study, vital sign (HR, SBP, DBP) changes and orthostatic AEs; assay type: in vivo, human; settings: tolterodine 4 mg
Description: None led to discontinuation. The overall incidence of orthostatic symptoms was low.
Small differences in the percent of subjects exceeding categorical heart rate and blood pressure thresholds for vibegron were similar to those in the tolterodine arm.

[3] = Phase 3 study (75 mg), heart rate and blood pressure changes; assay type: in vivo, human
Description: Study assessments of safety included adverse events, physical examinations, vital signs (and weight), and clinical laboratory tests
Categorical changes are based on 3 consecutive post-baseline visits and patients are counted in all applicable categories (e.g., if a patient has a 12 unit increase then that patient is counted in both ≥5 and ≥10 unit columns).
Blood Pressure assessments are taken in triplicate and averaged at each visit.

[4] = tested on: men and women with overactive bladder; experiment: extension study, OAB-q LF coping subscore at Week 52; assay type: in vivo, human; settings: for OAB-q LF Coping Subscore, Week 52 Mean: Full Analysis Set Extension; for OAB-q LF Coping Subscore, Change from Baseline Mean at Week 52: baseline from parent study
[5] = Description: A placebo group was included in the main study, and a group that received tolterodine monotherapy was included in the main study and in the extension.
[6] = 3 consecutive post-baseline visits

Cc1ccc(O)c([C@H](CCN(C(C)C)C(C)C)c2ccccc2)c1 [Tolterodine ER, tolterodine, reference compound]
Discontinued the study: Death ([1]; 40-Weeks arm): 0 n (%) | Discontinued the study: Death ([1]; 52-Weeks arm): 0 n (%) | SAEs resulting in death (not considered related by Investigator or Sponsor) ([1]; Overall groups): 0 n (%) | Discontinued the study: Death ([1]; Overall groups, Randomized Set Extension): 0 n (%) | Discontinued the study: Adverse Event ([1]; both, human, in vivo): 8 (3.4) n (%) | Patients with at least one treatment-emergent adverse event ([1]; both, human, in vivo): 126 (54.3) n (%) | Patients with at least one treatment-emergent serious AE ([1]; both, human, in vivo): 10 (4.3) n (%) | SAEs considered treatment-related by the investigator ([1]; both, human, in vivo): 2 (0.9) n (%) | SAEs: Hospitalization ([1]; both, human, in vivo): 9 (3.9) n (%) | SAEs: Other serious criteria ([1]; both, human, in vivo): 2 (0.9) n (%) | Discontinued the study: Adverse Event ([1]; both, human, in vivo, 40 weeks): 4 (4.4) n (%) | AE leading to discontinuation of study drug: Acute prerenal failure ([1]; both, human, in vivo, 52 weeks): 1 (0.4) n (%) | AE leading to discontinuation of study drug: Amnesia ([1]; both, human, in vivo, 52 weeks): 0 n (%) | AE leading to discontinuation of study drug: Any ([1]; both, human, in vivo, 52 weeks): 8 (3.4) n (%) | AE leading to discontinuation of study drug: Aortic stenosis ([1]; both, human, in vivo, 52 weeks): 1 (0.4) n (%) | AE leading to discontinuation of study drug: Atrial fibrillation ([1]; both, human, in vivo, 52 weeks): 1 (0.4) n (%) | AE leading to discontinuation of study drug: Blood creatinine increased ([1]; both, human, in vivo, 52 weeks): 0 n (%) | AE leading to discontinuation of study drug: Blood urea increased ([1]; both, human, in vivo, 52 weeks): 0 n (%) | AE leading to discontinuation of study drug: Cardiac failure ([1]; both, human, in vivo, 52 weeks): 1 (0.4) n (%) | AE leading to discontinuation of study drug: Cardiomyopathy ([1]; both, human, in vivo, 52 weeks): 1 (0.4) n (%) | AE leading to discontinuation of study drug: Chronic kidney disease ([1]; both, human, in vivo, 52 weeks): 1 (0.4) n (%) | AE leading to discontinuation of study drug: Constipation ([1]; both, human, in vivo, 52 weeks): 0 n (%) | AE leading to discontinuation of study drug: Diarrhea ([1]; both, human, in vivo, 52 weeks): 0 n (%) | AE leading to discontinuation of study drug: Dizziness ([1]; both, human, in vivo, 52 weeks): 1 (0.4) n (%) | AE leading to discontinuation of study drug: Dry eye ([1]; both, human, in vivo, 52 weeks): 1 (0.4) n (%) | AE leading to discontinuation of study drug: Dyspnoea ([1]; both, human, in vivo, 52 weeks): 1 (0.4) n (%) | AE leading to discontinuation of study drug: Haematuria ([1]; both, human, in vivo, 52 weeks): 1 (0.4) n (%) | AE leading to discontinuation of study drug: Headache ([1]; both, human, in vivo, 52 weeks): 1 (0.4) n (%) | AE leading to discontinuation of study drug: Intervertebral disc degeneration ([1]; both, human, in vivo, 52 weeks): 1 (0.4) n (%) | AE leading to discontinuation of study drug: Mitral valve incompetence ([1]; both, human, in vivo, 52 weeks): 1 (0.4) n (%) | AE leading to discontinuation of study drug: Osteoarthritis ([1]; both, human, in vivo, 52 weeks): 1 (0.4) n (%) | AE leading to discontinuation of study drug: Pulmonary embolism ([1]; both, human, in vivo, 52 weeks): 1 (0.4) n (%) | AE leading to discontinuation of study drug: Sinus tachycardia ([1]; both, human, in vivo, 52 weeks): 1 (0.4) n (%) | AE leading to discontinuation of study drug: Tricuspid valve incompetence ([1]; both, human, in vivo, 52 weeks): 1 (0.4) n (%) | AE: Anaemia ([1]; both, human, in vivo, 52 weeks): 2 (0.9) n (%) | AE: Atrial fibrillation ([1]; both, human, in vivo, 52 weeks): 1 (0.4) n (%) | AE: Back pain ([1]; both, human, in vivo, 52 weeks): 3 (1.3) n (%) | AE: Blood pressure increased ([1]; both, human, in vivo, 52 weeks): 4 (1.7) n (%) | AE: Bronchitis ([1]; both, human, in vivo, 52 weeks): 3 (1.3) n (%) | AE: Constipation ([1]; both, human, in vivo, 52 weeks): 6 (2.6) n (%) | AE: Diarrhea ([1]; both, human, in vivo, 52 weeks): 4 (1.7) n (%) | AE: Dizziness ([1]; both, human, in vivo, 52 weeks): 2 (0.9) n (%) | AE: Dry mouth ([1]; both, human, in vivo, 52 weeks): 12 (5.2) n (%) | AE: Fatigue ([1]; both, human, in vivo, 52 weeks): 0 n (%) | AE: Headache ([1]; both, human, in vivo, 52 weeks): 9 (3.9) n (%) | AE: Hyperglycemia ([1]; both, human, in vivo, 52 weeks): 2 (0.9) n (%) | AE: Hypertension ([1]; both, human, in vivo, 52 weeks): 20 (8.6) n (%) | AE: Hypotension ([1]; both, human, in vivo, 52 weeks): 0 n (%) | AE: Musculoskeletal pain ([1]; both, human, in vivo, 52 weeks): 1 (0.4) n (%) | AE: Nasopharyngitis ([1]; both, human, in vivo, 52 weeks): 12 (5.2) n (%) | AE: Nausea ([1]; both, human, in vivo, 52 weeks): 7 (3.0) n (%) | AE: Residual urine volume increased ([1]; both, human, in vivo, 52 weeks): 3 (1.3) n (%) | AE: Syncope ([1]; both, human, in vivo, 52 weeks): 1 (0.4) n (%) | AE: Tachycardia (Sinus Tachycardia) ([1]; both, human, in vivo, 52 weeks): 1 (0.4) n (%) | AE: Upper respiratory tract infection ([1]; both, human, in vivo, 52 weeks): 1 (0.4) n (%) | AE: Urinary retention ([1]; both, human, in vivo, 52 weeks): 1 (0.4) n (%) | AE: Urinary tract infection ([1]; both, human, in vivo, 52 weeks): 17 (7.3) n (%) | Discontinued the study: Adverse Event ([1]; both, human, in vivo, 52 weeks): 4 (2.8) n (%) | DBP change from baseline, mean (95% CI) maximum, week 1 to 8 [2]: 5.19 (4.26, 6.13) mm Hg | DBP change from baseline, mean (95% CI), week 1 [2]: −0.12 (−1.10, 0.86) mm Hg | HR change from baseline, mean (95% CI) maximum, week 1 to 8 [2]: 5.66 (4.69, 6.63) bpm | HR change from baseline, mean (95% CI), week 1 [2]: 0.68 (−0.31, 1.67) bpm | SBP change from baseline, mean (95% CI) maximum, week 1 to 8 [2]: 7.29 (6.01, 8.57) mm Hg | SBP change from baseline, mean (95% CI), week 1 [2]: 0.04 (−1.36, 1.43) mm Hg | Diastolic BP categorical change from baseline ≥5 mm Hg, patients [3, 6]: 7.4% | Diastolic BP categorical change from baseline ≥10 mm Hg, patients [3, 6]: 2.1% | Diastolic BP categorical change from baseline ≥15 mm Hg, patients [3, 6]: 0.7% | Heart Rate categorical change from baseline ≥5 bpm, patients [3, 6]: 6.5% | Heart Rate categorical change from baseline ≥10 bpm, patients [3, 6]: 2.1% | Heart Rate categorical change from baseline ≥15 bpm, patients [3, 6]: 0.5% | Systolic BP categorical change from baseline ≥5 mm Hg, patients [3, 6]: 9.3% | Systolic BP categorical change from baseline ≥10 mm Hg, patients [3, 6]: 4.7% | Systolic BP categorical change from baseline ≥15 mm Hg, patients [3, 6]: 2.1% | Diastolic BP, 12-week change (95% CI) ([3]; Hypertensive at baseline): −1.3 (−3.8, +1.3) mm Hg | Heart Rate, 12-week change ([3]; Hypertensive at baseline): +1.5 beats/minute | Systolic BP, 12-week change (95% CI) ([3]; Hypertensive at baseline): −7.6 (−10.9, −4.3) mm Hg | Diastolic BP, 12-week change (95% CI) ([3]; Normotensive at baseline): +0.5 (−0.2, +1.3) mm Hg | Heart Rate, 12-week change ([3]; Normotensive at baseline): +0.2 beats/minute | Systolic BP, 12-week change (95% CI) ([3]; Normotensive at baseline): +1.0 (−0.1, +2.1) mm Hg | Diastolic BP, Mean Change from Baseline at Week 12 (SD) ([3]; Week 12, all patients): 0.3 (7.11) mm Hg | Heart Rate, Mean Change from Baseline at Week 12 ([3]; Week 12, all patients): 0.3 beats/minute | Systolic BP, Mean Change from Baseline at Week 12 ([3]; Week 12, all patients): 0.1 mm Hg | OAB-q LF Coping Subscore, Week 52 Mean ([4]; 40-Week treatment group): 82.5 | OAB-q LF Coping Subscore, Change from Baseline Mean at Week 52 ([4]; 40-Week treatment group): 24.7 | OAB-q LF Coping Subscore, Week 52 Mean ([4]; 52-Week treatment group): 81.8 | OAB-q LF Coping Subscore, Change from Baseline Mean at Week 52 ([4]; 52-Week treatment group): 22.1 | frequency of injuries ([5]; Phase 2 study, tolterodine arm vs vibegron): 2.1% | SAEs reported in treatment group, number ([5]; tolterodine 4 mg, main study): 3 | Accidental overdose ([5]; tolterodine ER 4 mg): 6 (2.3) n (%) | Alanine aminotransferase increased ([5]; tolterodine ER 4 mg): 1 (0.4) n (%) | Arthralgia ([5]; tolterodine ER 4 mg): 3 (1.2) n (%) | Aspartate aminotransferase increased ([5]; tolterodine ER 4 mg): 0 (0.0) n (%) | Constipation ([5]; tolterodine ER 4 mg): 5 (1.9) n (%) | Diarrhea ([5]; tolterodine ER 4 mg): 9 (3.5) n (%) | Discontinuation due to AE ([5]; tolterodine ER 4 mg): 4 (1.6) n (%) | Discontinuation due to drug-related AE ([5]; tolterodine ER 4 mg): 0 n (%) | Dizziness ([5]; tolterodine ER 4 mg): 5 (1.9) n (%) | Drug-related AE ([5]; tolterodine ER 4 mg): 42 (16.3) n (%) | Dry eye ([5]; tolterodine ER 4 mg): 10 (3.9) n (%) | Dry mouth ([5]; tolterodine ER 4 mg): 22 (8.6) n (%) | Dysuria ([5]; tolterodine ER 4 mg): 3 (1.2) n (%) | Fatigue ([5]; tolterodine ER 4 mg): 6 (2.3) n (%) | Headache ([5]; tolterodine ER 4 mg): 9 (3.5) n (%) | Nasopharyngitis ([5]; tolterodine ER 4 mg): 4 (1.6) n (%) | Nausea ([5]; tolterodine ER 4 mg): 6 (2.3) n (%) | Osteoarthritis ([5]; tolterodine ER 4 mg): 0 (0.0) n (%) | Pain in extremity ([5]; tolterodine ER 4 mg): 1 (0.4) n (%) | Serious AE ([5]; tolterodine ER 4 mg): 3 (1.2) n (%) | Sinusitis ([5]; tolterodine ER 4 mg): 1 (0.4) n (%) | Subjects with ≥1 AE ([5]; tolterodine ER 4 mg): 116 (45.1) n (%) | Urinary tract infection ([5]; tolterodine ER 4 mg): 12 (4.7) n (%)
